# Measurements taken from ChEMBL document CHEMBL4602605, “Fluoroquinolones structural and medicinal developments (2013-2018): Where are we now?” (Bioorg Med Chem, 2019).
# What was measured:
# Escherichia coli [1] = assay: Antimicrobial activity against penicillin-resistant Escherichia coli at < 1 ug/ml relative to control; type: functional
# HL-60 = assay: Growth inhibition of human HL60 cells at 50 uM after 24 to 72 hrs by trypan blue staining based assay relative to control; type: functional; settings: read-out: GI
# [2] = Growth inhibition of mouse NIH/3T3 cells at 50 uM after 24 to 72 hrs by trypan blue staining based assay relative to control; type: cell-based, NIH3T3; settings: read-out: GI
# B16 = assay: Growth inhibition of mouse B16 cells at 50 uM after 24 to 72 hrs by trypan blue staining based assay relative to control; type: functional; settings: read-out: GI
# HeLa = assay: Growth inhibition of human HeLa cells at 50 uM after 24 to 72 hrs by trypan blue staining based assay relative to control; type: functional; settings: read-out: GI
# Klebsiella pneumoniae = assay: Antimicrobial activity against Klebsiella pneumoniae incubated overnight by broth microdilution method; type: functional
# Staphylococcus aureus [3] = assay: Antimicrobial activity against methicillin-resistant Staphylococcus aureus incubated overnight by broth microdilution method; type: functional
# Mycolicibacter terrae = assay: Antimicrobial activity against Mycobacterium terrae incubated for 10 days by microbroth dilution method; type: functional; settings: 240 h
# [4] = system: Mycobacterium tuberculosis; assay: Antimicrobial activity against Mycobacterium tuberculosis H37Rv incubated for 10 days by microbroth dilution method; type: functional; settings: 240 h
# Mycobacterium avium = assay: Antimicrobial activity against Mycobacterium avium incubated for 10 days by microbroth dilution method; type: functional; settings: 240 h
# Escherichia coli [5] = assay: Antimicrobial activity against Escherichia coli O157:H7 incubated for 24 hrs by microbroth dilution method; type: functional; settings: O157:H7, 24 h
# Listeria monocytogenes = assay: Antimicrobial activity against Listeria monocytogenes ATCC 19115 incubated for 24 hrs by microbroth dilution method; type: functional; settings: ATCC 19115, 24 h
# Escherichia coli [6] = assay: Antimicrobial activity against Escherichia coli ATCC 8739 incubated for 24 hrs by microbroth dilution method; type: functional; settings: ATCC 8739, 24 h
# Salmonella enterica = assay: Antimicrobial activity against Salmonella enterica ATCC 13312 incubated for 24 hrs by microbroth dilution method; type: functional; settings: ATCC 13312, 24 h
# Staphylococcus aureus [7] = assay: Antimicrobial activity against Staphylococcus aureus ATCC 33591 incubated for 24 hrs by microbroth dilution method; type: functional; settings: ATCC 33591, 24 h
# Stachybotrys chartarum = assay: Antimicrobial activity against Stachybotrys chartarum IBT 7711 after 48 hrs by microbroth dilution method; type: functional; settings: IBT 7711, 48 h
# Candida albicans = assay: Antimicrobial activity against Candida albicans ATCC 10231 after 24 hrs by microbroth dilution method; type: functional; settings: ATCC 10231, 24 h
# Escherichia coli [8] = assay: Antimicrobial activity against nalidixic acid-resistant Escherichia coli clinical isolate incubated for 24 hrs by microbroth dilution method; type: functional
# Staphylococcus aureus [9] = assay: Antimicrobial activity against Staphylococcus aureus ATCC 9253 incubated for 24 hrs by microbroth dilution method; type: functional; settings: ATCC 9253, 24 h
# Aspergillus flavus = assay: Antimicrobial activity against Aspergillus flavus ATCC 9643 after 48 hrs by microbroth dilution method; type: functional; settings: ATCC 9643, 48 h
# Escherichia coli [10] = assay: Antimicrobial activity against Escherichia coli NCTC 11954 incubated for 24 hrs by microbroth dilution method; type: functional; settings: NCTC 11954, 24 h
# Pseudomonas aeruginosa = assay: Antimicrobial activity against Pseudomonas aeruginosa ATCC 9627 incubated for 24 hrs by microbroth dilution method; type: functional; settings: ATCC 9627, 24 h
# Penicillium chrysogenum = assay: Antimicrobial activity against Penicillium chrysogenum ATCC 10106 after 48 hrs by microbroth dilution method; type: functional; settings: ATCC 10106, 48 h
smiles,measurement,setting,value
CCCOC(=O)c1cn(C2CC2)c2cc(N3CCNCC3)c(F)cc2c1=O,inhibition (INH),Escherichia coli [1],>60%
O=C(CSc1nnc(CN2CCN(c3cc4c(cc3F)c(=O)c(C(=O)O)cn4C3CC3)CC2)o1)c1ccc(Cl)cc1,inhibition of growth at 50 µM,HL-60,100%
same,inhibition at 50 µM,[2],100%
same,inhibition of growth at 50 µM,B16,100%
same,inhibition of growth at 50 µM,HeLa,100%
C[C@H]1Cn2cc(C(=O)NCCC(=O)NCCC[C@@H]3NC(=O)[C@H](CCCNC(=N)N)NC(=O)[C@H](CCCNC(=N)N)NC(=O)[C@H](CCCNC(=N)N)NC(=O)[C@@H](Cc4c[nH]c5ccccc45)NC(=O)[C@H](Cc4c[nH]c5ccccc45)NC(=O)[C@H](Cc4c[nH]c5ccccc45)NC(=O)[C@H](Cc4c[nH]c5ccccc45)NC(=O)[C@H](CCCNC(=N)N)NC3=O)c(=O)c3cc(F)c(N4CCN(C)CC4)c(c32)O1,MIC,Klebsiella pneumoniae,> 128 µg/mL
same,MIC,Staphylococcus aureus [3],32 µg/mL
CCOc1cccc2cc(-c3cc4c(cc3F)c(=O)c(C(=O)O)cn4CC)c(=O)oc12,MIC,Mycolicibacter terrae,0.7 µg/mL
same,MIC,[4],1.5 µg/mL
same,MIC,Mycobacterium avium,1.5 µg/mL
C[C@H]1Cn2cc(C(=O)NCCC(=O)NCCC[C@@H]3NC(=O)[C@H](CCCNC(=N)N)NC(=O)[C@H](CCCNC(=N)N)NC(=O)[C@H](CCCNC(=N)N)NC(=O)[C@@H](Cc4c[nH]c5ccccc45)NC(=O)[C@H](Cc4c[nH]c5ccccc45)NC(=O)[C@H](Cc4c[nH]c5ccccc45)NC(=O)[C@H](Cc4c[nH]c5ccccc45)NC(=O)[C@H](CCCNC(=N)N)NC3=O)c(=O)c3cc(F)c(F)c(c32)O1,MIC,Klebsiella pneumoniae,32 µg/mL
same,MIC,Staphylococcus aureus [3],8 µg/mL
CCCCCOC(=O)c1cn(C2CC2)c2cc(N3CCNCC3)c(F)cc2c1=O,inhibition (INH),Escherichia coli [1],>60%
COc1c(N2CCN(C)CC2)c(F)cc2c(=O)c(C(=O)N[C@H]3[C@H](O)[C@@H](O)[C@H](CO)[C@H](O)[C@@H]3O)cn(C3CC3)c12,MIC,Escherichia coli [5],39.7 µM
same,MIC,Listeria monocytogenes,636 µM
same,MIC,Escherichia coli [6],318 µM
same,MIC,Salmonella enterica,159 µM
same,MIC,Staphylococcus aureus [7],159 µM
same,MIC,Stachybotrys chartarum,636 µM
same,MIC,Candida albicans,< 9.9 µM
same,MIC,Escherichia coli [8],636 µM
same,MIC,Staphylococcus aureus [9],159 µM
same,MIC,Aspergillus flavus,636 µM
same,MIC,Escherichia coli [10],159 µM
same,MIC,Pseudomonas aeruginosa,19.9 µM
CCn1cc(C(=O)O)c(=O)c2cc(F)c(-c3cc4cc(C(C)(C)C)cc(C(C)(C)C)c4oc3=O)cc21,MIC,Mycolicibacter terrae,1.5 µg/mL
same,MIC,[4],3.1 µg/mL
same,MIC,Mycobacterium avium,3.1 µg/mL
COC[C@@H]1[C@H](OC(C)=O)[C@H](OC(C)=O)[C@@H](NC(=O)c2cn(C3CC3)c3c(OC)c(N4CCN(C)CC4)c(F)cc3c2=O)[C@H](OC(C)=O)[C@H]1OC(C)=O,MIC,Escherichia coli [5],55.7 µM
same,MIC,Listeria monocytogenes,111 µM
same,MIC,Penicillium chrysogenum,445 µM
same,MIC,Escherichia coli [6],445 µM
same,MIC,Salmonella enterica,890 µM
same,MIC,Staphylococcus aureus [7],111 µM
same,MIC,Stachybotrys chartarum,445 µM
same,MIC,Candida albicans,223 µM
same,MIC,Escherichia coli [8],445 µM
same,MIC,Staphylococcus aureus [9],55.7 µM
same,MIC,Aspergillus flavus,55.7 µM
same,MIC,Escherichia coli [10],111 µM
same,MIC,Pseudomonas aeruginosa,111 µM
C[C@H]1Cn2cc(C(=O)NCCC(=O)NCCCCC[C@@H](N)C(=O)N[C@@H](CCCNC(=N)N)C(=O)N[C@@H](CCCNC(=N)N)C(=O)N[C@@H](CCCNC(=N)N)C(=O)N[C@@H](CCCNC(=N)N)C(=O)N[C@@H](Cc3c[nH]c4ccccc34)C(=O)N[C@@H](CCCNC(=N)N)C(=O)N[C@@H](Cc3c[nH]c4ccccc34)C(=O)N[C@@H](Cc3c[nH]c4ccccc34)C(=O)O)c(=O)c3cc(F)c(N4CCN(C)CC4)c(c32)O1,MIC,Klebsiella pneumoniae,> 128 µg/mL
same,MIC,Staphylococcus aureus [3],64 µg/mL
CCCCCCCCOC(=O)c1cn(C2CC2)c2cc(N3CCNCC3)c(F)cc2c1=O,inhibition (INH),Escherichia coli [1],>60%
CCn1cc(C(=O)O)c(=O)c2cc(F)c(-c3cc4cc(Br)ccc4oc3=O)cc21,MIC,Mycolicibacter terrae,6.2 µg/mL
same,MIC,[4],6.2 µg/mL
same,MIC,Mycobacterium avium,6.2 µg/mL
